We go through 18 compounds from patent US20230219946A1, “PYRIMIDIN-4(3H)-ONE HETEROCYCLIC COMPOUND, PREPARATION METHOD THEREOF, AND PHARMACEUTICAL USE THEREOF” (Beijing Innocare Pharma Tech Co., Ltd., priority 2020, published 2023).

A word on the IC50: it is the midpoint of a concentration-inhibition curve.

Assay [1] addresses T1, Recombinant human SHP2 full-length protein (Homo sapiens, UniProt Q06124).
T1 construct: Recombinant human SHP2 full-length protein
T1 sequence (Q06124 1-593): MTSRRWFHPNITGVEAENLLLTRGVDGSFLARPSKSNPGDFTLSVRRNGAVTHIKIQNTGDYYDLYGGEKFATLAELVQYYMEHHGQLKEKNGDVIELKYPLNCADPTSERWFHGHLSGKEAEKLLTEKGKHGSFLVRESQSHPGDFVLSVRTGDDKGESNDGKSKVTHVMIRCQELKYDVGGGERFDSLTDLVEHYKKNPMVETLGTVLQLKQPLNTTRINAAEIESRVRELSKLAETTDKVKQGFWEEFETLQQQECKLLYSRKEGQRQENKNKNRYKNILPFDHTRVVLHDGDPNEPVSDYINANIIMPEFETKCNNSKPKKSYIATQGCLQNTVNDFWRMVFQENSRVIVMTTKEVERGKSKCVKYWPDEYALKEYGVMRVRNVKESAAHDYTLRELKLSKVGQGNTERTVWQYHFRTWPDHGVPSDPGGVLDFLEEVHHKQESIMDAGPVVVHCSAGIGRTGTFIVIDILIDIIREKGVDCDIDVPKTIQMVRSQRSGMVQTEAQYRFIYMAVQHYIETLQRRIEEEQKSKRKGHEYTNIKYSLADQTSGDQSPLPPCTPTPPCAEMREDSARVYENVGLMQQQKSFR
The assay is described as follows: SHP2 activity inhibition measurement (fluorescence detection, surrogate substrate DiFMUP). The conditions noted are these: recombinant human SHP2 full-length protein activated with diphosphopeptide. In kind it is biochemical. The procedure: SHP2 activity inhibition measurement
The effect of the compound of the present invention on SHP2 activity is evaluated by rapid fluorescence detection method using the surrogate substrate DiFMUP.
(§1) The experimental method is outlined as follows:
Recombinant human SHP2 full-length protein was expressed and purified by the protein purification and identification platform of Tsinghua University; diphosphopeptide (H2N-LN(pY)IDLDLV-(dPEG8)LST(pY)ASINFQK-amide) was synthesized by Nanjing GenScript Biotechnology Co., Ltd.; surrogate substrate DiFMUP was purchased from Thermo Fisher Scientific (Cat. No. D6567); reaction buffer contained the following components: 60 mM HEPES (pH 7.2), 75 mM NaCl, 75 mM KCl, 1 mM EDTA, 0.05% TWEEN 20, and 5 mM DTT.
The compound was dissolved in DMSO (Sigma, Cat. No. D5879) and diluted to 100 μM. The resulting solution was serially diluted 4-fold with DMSO to a minimum concentration of 6.1 nM, and each concentration point was diluted 25-fold with the reaction buffer.
10 μL of compound solution and 10 μL of 0.25 nM SHP2 protein solution were added to a 384-well microplate (Corning, Cat. No. 3575), mixed well, and incubated at room temperature for 30 min. 10 μL of 0.5 μM diphosphopeptide (dissolved in the reaction buffer) was added, mixed well, and incubated at room temperature for 30 to 60 min. Subsequently, 10 μL of 60 μM DiFMUP solution (dissolved in the reaction buffer) was added, mixed well, and let stand at room temperature. After 30 min, fluorescence signals were measured at 340 nm (excitation wavelength)/450 nm (emission wavelength) using a microplate reader (EnSpire, Perkin Elmer). The fluorescence intensity value was positively correlated with the degree of dephosphorylation of the substrate, thereby reflecting the catalytic activity of SHP2. […] An inhibition curve of the compound was plotted by XLfit software and the inhibitory IC50 was calculated.

Assay [2] has as its system human non-small cell lung cancer cell line NCI-H358. Kind of assay: NCI-H358 cell proliferation inhibition (luminescent cell viability assay, CTG). In kind it is cell-based. The note with it: 120 h, NCI-H358 cells, 5 days, CellTiter-Glo. The procedure: Determination of NCI-H358 cell proliferation inhibition
The effect of the compound of the present invention on proliferation of human non-small cell lung cancer cell line NCI-H358 is evaluated by luminescent cell viability assay.
as §1
The compound was dissolved in DMSO (Sigma, Cat. No. D5879) and diluted to 5 mM. The resulting solution was serially diluted 4-fold with DMSO to a minimum concentration of […], and each concentration point was diluted 50-fold with RPMI 1640 Medium (Thermo Fisher Scientific, Cat. No. 11995073). When the IC50 value of the compound was low, the initial concentration of the compound was further reduced.
NCI-H358 cells (ATCC, Cat. No. CRL-5807) were cultured in RPMI 1640 Complete Medium [RPMI 1640 Medium was supplemented with 10% FBS (GBICO, Cat. No. 10099-141) and 100 units/mL Penicillin-Streptomycin (Thermo Fisher Scientific, Cat. No. 15140122)]. The cells (15,000 cells/mL) were seeded in 90 μL of Complete Medium on a 96-well plate. After culturing overnight, 10 μL of compound solution was added to each well and cultured at 37° C. in a 5% CO2 incubator for 5 days. According to the instruction from the CellTilter-Glo (CTG) kit (Promega, Cat. No. G7572), the cell culture plate was removed from incubator and equilibrated to room temperature. The cells were lysed fully with 50 μL of CTG reagent and placed at room temperature for 10 min. A luminescence signal was read by the microplate reader (EnVision, Perkin Elmer). […] An inhibition curve of the compound was plotted by XLfit software and the inhibitory IC50 was calculated.
On the technique in general: Cellular ATP, detected with luciferase, serves as a proxy for viable cell number.

Where a name gives a salt, the structure may show the parent alone.

For `Cn1c(N2CCC3(CCC[C@H]3N)CC2)ncc(Sc2ccnc3[nH]ccc23)c1=O` [Compound 1, (R)-5-((1H-pyrrolo[2,3-b]pyridin-4-yl)thio)-2-(1-amino-8-azaspiro[4.5]decan-8-yl)-3-methylpyrimidin-4(3H)-one hydrochloride], the half-inhibitory concentration (IC50) in assay [1] worked out at 23 nM; in assay [2], 310 nM.
The like results for `Cn1c(N2CCC3(CCC[C@H]3N)CC2)ncc(Sc2ccnc3c2ccn3C)c1=O` [Compound 2, (R)-2-(1-amino-8-azaspiro[4.5]decan-8-yl)-3-methyl-5-((1-methyl-1H-pyrrolo[2,3-b]pyridin-4-yl)thio)pyrimidin-4(3H)-one formate] were, in that order, 20 nM and 383 nM.
On the same counts, the results for `Cn1c(N2CCC3(CCC[C@H]3N)CC2)ncc(Sc2cccc3[nH]ncc23)c1=O` [Compound 3, (R)-5-((1H-indazole-4-yl)thio)-2-(1-amino-8-azaspiro[4.5]decan-8-yl)-3-methylpyrimidin-4(3H)-one hydrochloride] are 20 nM and 434 nM.
On the same counts, the results for `Cn1c(N2CCC3(CCC[C@H]3N)CC2)ncc(Sc2cccn3nccc23)c1=O` [Compound 4, (R)-2-(1-amino-8-azaspiro[4.5]decan-8-yl)-3-methyl-5-(pyrazolo[1,5-a]pyridin-4-ylthio)pyrimidin-4(3H)-one formate] are 126 nM and 2360 nM.
For the compound `Cn1c(N2CCC3(CCC[C@H]3N)CC2)ncc(Sc2ccn3nccc3c2)c1=O` [Compound 5, (R)-2-(1-amino-8-azaspiro[4.5]decan-8-yl)-3-methyl-5-(pyrazolo[1,5-a]pyridin-5-ylthio)pyrimidin-4(3H)-one hydrochloride], the IC50 in assay [1] was determined as 801 nM.
The same measure, in the same setting: the same measure for `Cn1c(N2CCC3(CCC[C@H]3N)CC2)ncc(Sc2ccc3[nH]ncc3c2)c1=O` [Compound 6, (R)-5-((1H-indazole-5-yl)thio)-2-(1-amino-8-azaspiro[4.5]decan-8-yl)-3-methylpyrimidin-4(3H)-one hydrochloride]: 877 nM.
`Cn1c(N2CCC3(CCC[C@H]3N)CC2)ncc(Sc2ccn3nccc3c2Cl)c1=O` [Compound 8, (R)-2-(1-amino-8-azaspiro[4.5]decan-8-yl)-5-((4-chloropyrazolo[1,5-a]pyridin-5-yl)thio)-3-methylpyrimidin-4(3H)-one formate]: the IC50 was determined as 8.6 nM in assay [1] and 309 nM in assay [2].
On the same counts, the results for `Cn1nc2ccc(Sc3cnc(N4CCC5(CCC[C@H]5N)CC4)n(C)c3=O)c(Cl)c2c1C#N` [Compound 9, (R)-5-((2-(1-amino-8-azaspiro[4.5]decan-8-yl)-1-methyl-6-oxo-1,6-dihydropyrimidin-5-yl)thio)-4-chloro-2-methyl-2H-indazole-3-carbonitrile formate] are 8.8 nM and 1340 nM.
On the same counts, the results for `Cn1cc2c(Cl)c(Sc3cnc(N4CCC5(CC4)COC[C@H]5N)n(C)c3=O)ccc2n1` [Compound 10, (S)-2-(4-amino-2-oxa-8-azaspiro[4.5]decan-8-yl)-5-((4-chloro-2-methyl-2H-indazole-5-yl)thio)-3-methylpyrimidin-4(3H)-one] are 36 nM and 1760 nM.
For `C[C@@H]1OCC2(CCN(c3ncc(Sc4ccc5nn(C)cc5c4Cl)c(=O)n3C)CC2)[C@@H]1N` [Compound 11, 2-((3S,4S)-4-amino-3-methyl-2-oxa-8-azaspiro[4.5]decan-8-yl)-5-((4-chloro-2-methyl-2H-indazole-5-yl)thio)-3-methylpyrimidin-4(3H)-one formate], the IC50 in assay [1] came to 4 nM; in assay [2], 165 nM.
On the same counts, the results for `C[C@@H]1OCC2(CCN(c3ncc(Sc4ccn5nccc5c4Cl)c(=O)n3C)CC2)[C@@H]1N` [Compound 12, 2-((3S,4S)-4-amino-3-methyl-2-oxa-8-azaspiro[4.5]decan-8-yl)-5-((4-chloropyrazolo[1,5-a]pyridin-5-yl)thio)-3-methylpyrimidin-4(3H)-one formate] are 3.1 nM and 264 nM.
Turning to `Cn1c(N2CCC3(CCC[C@H]3N)CC2)nc(N)c(Sc2cccc3[nH]ncc23)c1=O` [Compound 13, (R)-5-((1H-indazole-4-yl)thio)-6-amino-2-(1-amino-8-azaspiro[4.5]decan-8-yl)-3-m ethylpyrimidin-4(3H)-one formate], the IC50 in assay [1] turned out to be 8.7 nM.
In the case of `C[C@@H]1OCC2(CCN(c3nc(N)c(Sc4ccc5nn(C)cc5c4Cl)c(=O)n3C)CC2)[C@@H]1N` [Compound 14, 6-Amino-2-((3S,4S)-4-amino-3-methyl-2-oxa-8-azaspiro[4.5]decan-8-yl)-5-((4-chloro-2-methyl-2H-indazole-5-yl)thio)-3-methylpyrimidin-4(3H)-one formate], the IC50 in assay [1] amounted to 2.5 nM; in assay [2], 108 nM.
Regarding `C[C@@H]1OCC2(CCN(c3nc(N)c(Sc4ccn5nccc5c4Cl)c(=O)n3C)CC2)[C@@H]1N` [Compound 15, 6-Amino-2-((3S,4S)-4-amino-3-methyl-2-oxa-8-azaspiro[4.5]decan-8-yl)-5-((4-chloropyrazolo[1,5-a]pyridine-5-yl)thio)-3-methylpyrimidin-4(3H)-one formate], the IC50 in assay [1] was 2.7 nM; in assay [2] it was 342 nM.
As for `Cn1cc2c(Cl)c(Sc3cnc(N4CCC(C)(CN)CC4)n(C)c3=O)ccc2n1` [Compound 16, 2-(4-(Aminomethyl)-4-methylpiperidin-1-yl)-5-((4-chloro-2-methyl-2H-indazole-5-yl)thio)-3-methylpyrimidin-4(3H)-one formate], in assay [1], the IC50 worked out at 56 nM.
For the compound `C[C@@H]1OCC2(CCN(c3ncc(Sc4ccnc5c4ccn5C)c(=O)n3C)CC2)[C@@H]1N` [Compound 17, 2-((3S,4S)-4-amino-3-methyl-2-oxa-8-azaspiro[4.5]decan-8-yl)-3-methyl-5-((1-methyl-1H-pyrrolo[2,3-b]pyridin-4-yl)thio)pyrimidin-4(3H)-one formate], the concentration for half-maximal inhibition (IC50) amounted to 14 nM in assay [1] and 540 nM in assay [2].
The like results for `C[C@@H]1OCC2(CCN(c3ncc(Sc4ccnc5[nH]ccc45)c(=O)n3C)CC2)[C@@H]1N` [Compound 18, 5-((1H-pyrrolo[2,3-b]pyridin-4-yl)thio)-2-((3S,4S)-4-amino-3-methyl-2-oxa-8-azaspiro[4.5]decan-8-yl)-3-methylpyrimidin-4(3H)-one formate] were, in that order, 5.5 nM and 335 nM.
On the same counts, the results for `[2H]C([2H])([2H])n1c(N2CCC3(CC2)CO[C@@H](C)[C@H]3N)ncc(Sc2ccc3nn(C)cc3c2Cl)c1=O` [Compound 19, 2-((3S,4S)-4-amino-3-methyl-2-oxa-8-azaspiro[4.5]decan-8-yl)-5-((4-chloro-2-methyl-2H-indazole-5-yl)thio)-3-(methyl-d3)pyrimidin-4(3H)-one] are 11 nM and 222 nM.
